Measured values from ChEMBL document CHEMBL2346657, “Synthesis of novel 2-amino-4-(5'-substituted 2'-phenyl-1H-indol-3'-yl)-6-aryl-4H-pyran-3-carbonitrile derivatives as antimicrobial and antioxidant agents” (2013).
Calls of active or inactive are those of the source. No rule for the calls is given here.

Tests used:
Assay type in all cases: functional
Aspergillus terreus [1] = experiment: Antimicrobial activity against Aspergillus terreus MTCC 1782 at 500 ug/ml after 72 hrs by cup plate method; conditions: MTCC 1782, 72 h, read-out: IZ
Klebsiella pneumoniae [2] = experiment: Antimicrobial activity against Klebsiella pneumoniae NCTC 13368 at 500 ug/ml after 24 hrs by cup plate method; conditions: NCTC 13368, 24 h, read-out: IZ
Aspergillus oryzae [3] = experiment: Antimicrobial activity against Aspergillus oryzae MTCC 3567 at 750 ug/ml after 72 hrs by cup plate method; conditions: MTCC 3567, 72 h, read-out: IZ
Aspergillus niger [4] = experiment: Antimicrobial activity against Aspergillus niger MTCC 281 at 750 ug/ml after 72 hrs by cup plate method; conditions: MTCC 281, 72 h, read-out: IZ
Aspergillus oryzae [5] = experiment: Antimicrobial activity against Aspergillus oryzae MTCC 3567 at 1000 ug/ml after 72 hrs by cup plate method; conditions: MTCC 3567, 72 h, read-out: IZ
Pseudomonas aeruginosa [6] = experiment: Antimicrobial activity against Pseudomonas aeruginosa MTCC 1688 at 500 ug/ml after 24 hrs by cup plate method; conditions: MTCC 1688, 24 h, read-out: IZ
Staphylococcus aureus [7] = experiment: Antimicrobial activity against Staphylococcus aureus ATCC 29513 at 500 ug/ml after 24 hrs by cup plate method; conditions: ATCC 29513, 24 h, read-out: IZ
Aspergillus niger [8] = experiment: Antimicrobial activity against Aspergillus niger MTCC 281 at 1000 ug/ml after 72 hrs by cup plate method; conditions: MTCC 281, 72 h, read-out: IZ
Aspergillus flavus [9] = experiment: Antimicrobial activity against Aspergillus flavus MTCC 1973 at 750 ug/ml after 72 hrs by cup plate method; conditions: MTCC 1973, 72 h, read-out: IZ
[10] = Antioxidant activity assessed as metal chelating activity by measuring inhibition of ferrozine-Fe2+ complex formation at 25 to 100 ug/ml
Pseudomonas aeruginosa [11] = experiment: Antimicrobial activity against Pseudomonas aeruginosa MTCC 1688 at 750 ug/ml after 24 hrs by cup plate method; conditions: MTCC 1688, 24 h, read-out: IZ
Klebsiella pneumoniae [12] = experiment: Antimicrobial activity against Klebsiella pneumoniae NCTC 13368 at 750 ug/ml after 24 hrs by cup plate method; conditions: NCTC 13368, 24 h, read-out: IZ
Klebsiella pneumoniae [13] = experiment: Antimicrobial activity against Klebsiella pneumoniae NCTC 13368 at 1000 ug/ml after 24 hrs by cup plate method; conditions: NCTC 13368, 24 h, read-out: IZ
Aspergillus flavus [14] = experiment: Antimicrobial activity against Aspergillus flavus MTCC 1973 at 1000 ug/ml after 72 hrs by cup plate method; conditions: MTCC 1973, 72 h, read-out: IZ
Escherichia coli [15] = experiment: Antimicrobial activity against Escherichia coli MTCC 723 at 750 ug/ml after 24 hrs by cup plate method; conditions: MTCC 723, 24 h, read-out: IZ
Aspergillus oryzae [16] = experiment: Antimicrobial activity against Aspergillus oryzae MTCC 3567 at 500 ug/ml after 72 hrs by cup plate method; conditions: MTCC 3567, 72 h, read-out: IZ
Escherichia coli [17] = experiment: Antimicrobial activity against Escherichia coli MTCC 723 at 1000 ug/ml after 24 hrs by cup plate method; conditions: MTCC 723, 24 h, read-out: IZ
Aspergillus terreus [18] = experiment: Antimicrobial activity against Aspergillus terreus MTCC 1782 at 750 ug/ml after 72 hrs by cup plate method; conditions: MTCC 1782, 72 h, read-out: IZ
Aspergillus terreus [19] = experiment: Antimicrobial activity against Aspergillus terreus MTCC 1782 at 1000 ug/ml after 72 hrs by cup plate method; conditions: MTCC 1782, 72 h, read-out: IZ
Staphylococcus aureus [20] = experiment: Antimicrobial activity against Staphylococcus aureus ATCC 29513 at 1000 ug/ml after 24 hrs by cup plate method; conditions: ATCC 29513, 24 h, read-out: IZ
Escherichia coli [21] = experiment: Antimicrobial activity against Escherichia coli MTCC 723 at 500 ug/ml after 24 hrs by cup plate method; conditions: MTCC 723, 24 h, read-out: IZ
Staphylococcus aureus [22] = experiment: Antimicrobial activity against Staphylococcus aureus ATCC 29513 at 750 ug/ml after 24 hrs by cup plate method; conditions: ATCC 29513, 24 h, read-out: IZ
Aspergillus flavus [23] = experiment: Antimicrobial activity against Aspergillus flavus MTCC 1973 at 500 ug/ml after 72 hrs by cup plate method; conditions: MTCC 1973, 72 h, read-out: IZ
Pseudomonas aeruginosa [24] = experiment: Antimicrobial activity against Pseudomonas aeruginosa MTCC 1688 at 1000 ug/ml after 24 hrs by cup plate method; conditions: MTCC 1688, 24 h, read-out: IZ
Aspergillus niger [25] = experiment: Antimicrobial activity against Aspergillus niger MTCC 281 at 500 ug/ml after 72 hrs by cup plate method; conditions: MTCC 281, 72 h, read-out: IZ

Structure (SMILES)	zone of inhibition at 500 µg/mL (Aspergillus terreus [1]) [mm]	zone of inhibition at 500 µg/mL (Klebsiella pneumoniae [2]) [mm]	zone of inhibition at 750 µg/mL (Aspergillus oryzae [3]) [mm]	zone of inhibition at 750 µg/mL (Aspergillus niger [4]) [mm]	zone of inhibition at 1000 µg/mL (Aspergillus oryzae [5]) [mm]	zone of inhibition at 500 µg/mL (Pseudomonas aeruginosa [6]) [mm]	zone of inhibition at 500 µg/mL (Staphylococcus aureus [7]) [mm]	zone of inhibition at 1000 µg/mL (Aspergillus niger [8]) [mm]	zone of inhibition at 750 µg/mL (Aspergillus flavus [9]) [mm]	Activity [10]	zone of inhibition at 750 µg/mL (Pseudomonas aeruginosa [11]) [mm]	zone of inhibition at 750 µg/mL (Klebsiella pneumoniae [12]) [mm]	zone of inhibition at 1000 µg/mL (Klebsiella pneumoniae [13]) [mm]	zone of inhibition at 1000 µg/mL (Aspergillus flavus [14]) [mm]	zone of inhibition at 750 µg/mL (Escherichia coli [15]) [mm]	zone of inhibition at 500 µg/mL (Aspergillus oryzae [16]) [mm]	zone of inhibition at 1000 µg/mL (Escherichia coli [17]) [mm]	zone of inhibition at 750 µg/mL (Aspergillus terreus [18]) [mm]	zone of inhibition at 1000 µg/mL (Aspergillus terreus [19]) [mm]	zone of inhibition at 1000 µg/mL (Staphylococcus aureus [20]) [mm]	also measured
Nc1nc(=O)[nH]c2c1C(c1c(-c3ccccc3)[nH]c3ccccc13)C=C(c1ccc(Cl)cc1)O2 (stereo not given)	6	11	5	5	3	12	14	5	12	Active	12	10	8	12	13	6	14	4	4	14	zone of inhibition at 500 µg/mL (Escherichia coli [21]): 13 mm; zone of inhibition at 750 µg/mL (Staphylococcus aureus [22]): 14 mm; zone of inhibition at 500 µg/mL (Aspergillus flavus [23]): 12 mm; zone of inhibition at 1000 µg/mL (Pseudomonas aeruginosa [24]): 13 mm; zone of inhibition at 500 µg/mL (Aspergillus niger [25]): 5 mm
Cc1ccc(C2=CC(c3c(-c4ccccc4)[nH]c4ccc(C)cc34)c3c(N)nc(=S)[nH]c3O2)cc1 (stereo not given)	5	6	5	0	5	6	0	0	8	Active	5	5	5	9	4	5	4	5	5	0	zone of inhibition at 500 µg/mL (Escherichia coli [21]): 5 mm; zone of inhibition at 750 µg/mL (Staphylococcus aureus [22]): 0 mm; zone of inhibition at 500 µg/mL (Aspergillus flavus [23]): 9 mm; zone of inhibition at 1000 µg/mL (Pseudomonas aeruginosa [24]): 5 mm; zone of inhibition at 500 µg/mL (Aspergillus niger [25]): 0 mm
Cc1ccc(C2=CC(c3c(-c4ccccc4)[nH]c4ccc(Cl)cc34)c3c(N)nc(=O)[nH]c3O2)cc1 (stereo not given)	8	8	13	10	13	10	0	10	12	Active	9	8	8	13	8	12	10	8	8	0	zone of inhibition at 500 µg/mL (Escherichia coli [21]): 8 mm; zone of inhibition at 750 µg/mL (Staphylococcus aureus [22]): 0 mm; zone of inhibition at 500 µg/mL (Aspergillus flavus [23]): 12 mm; zone of inhibition at 1000 µg/mL (Pseudomonas aeruginosa [24]): 8 mm; zone of inhibition at 500 µg/mL (Aspergillus niger [25]): 10 mm
Cc1ccc2[nH]c(-c3ccccc3)c(C3C=C(c4ccccc4)Oc4[nH]c(=S)nc(N)c43)c2c1 (stereo not given)	9	5	3	3	3	9	10	8	6	Active	8	4	4	5	8	3	8	8	8	9	zone of inhibition at 500 µg/mL (Escherichia coli [21]): 8 mm; zone of inhibition at 750 µg/mL (Staphylococcus aureus [22]): 9 mm; zone of inhibition at 500 µg/mL (Aspergillus flavus [23]): 9 mm; zone of inhibition at 1000 µg/mL (Pseudomonas aeruginosa [24]): 8 mm; zone of inhibition at 500 µg/mL (Aspergillus niger [25]): 4 mm
Nc1n[nH]c2c1C(c1c(-c3ccccc3)[nH]c3ccccc13)C=C(c1ccccc1)O2 (stereo not given)	5	10	5	5	10	12	2	6	10	Active	12	9	8	3	9	6	9	5	5	2	zone of inhibition at 500 µg/mL (Escherichia coli [21]): 10 mm; zone of inhibition at 750 µg/mL (Staphylococcus aureus [22]): 2 mm; zone of inhibition at 500 µg/mL (Aspergillus flavus [23]): 10 mm; zone of inhibition at 1000 µg/mL (Pseudomonas aeruginosa [24]): 12 mm; zone of inhibition at 500 µg/mL (Aspergillus niger [25]): 5 mm
Cc1ccc(C2=CC(c3c(-c4ccccc4)[nH]c4ccc(Cl)cc34)c3c(N)nc(=S)[nH]c3O2)cc1 (stereo not given)	9	10	2	10	2	10	6	10	3	Active	10	10	9	3	9	3	9	8	8	2	zone of inhibition at 500 µg/mL (Escherichia coli [21]): 10 mm; zone of inhibition at 750 µg/mL (Staphylococcus aureus [22]): 3 mm; zone of inhibition at 500 µg/mL (Aspergillus flavus [23]): 3 mm; zone of inhibition at 1000 µg/mL (Pseudomonas aeruginosa [24]): 10 mm; zone of inhibition at 500 µg/mL (Aspergillus niger [25]): 10 mm
N#Cc1c(N)c2c(N)c3c(nc2oc1=O)OC(c1ccc(Cl)cc1)=CC3c1c(-c2ccccc2)[nH]c2ccccc12 (stereo not given)	10	13	13	5	13	10	12	5	0	Active	9	13	13	8	3	12	12	10	11	12	zone of inhibition at 500 µg/mL (Escherichia coli [21]): 3 mm; zone of inhibition at 750 µg/mL (Staphylococcus aureus [22]): 11 mm; zone of inhibition at 500 µg/mL (Aspergillus flavus [23]): 0 mm; zone of inhibition at 1000 µg/mL (Pseudomonas aeruginosa [24]): 9 mm; zone of inhibition at 500 µg/mL (Aspergillus niger [25]): 7 mm
Cc1ccc2[nH]c(-c3ccccc3)c(C3C=C(c4ccc(Cl)cc4)OC(N)=C3C#N)c2c1 (stereo not given)	12	9	10	10	10	6	6	10	10	Active	5	9	8	8	10	10	10	13	13	2	zone of inhibition at 500 µg/mL (Escherichia coli [21]): 10 mm; zone of inhibition at 750 µg/mL (Staphylococcus aureus [22]): 5 mm; zone of inhibition at 500 µg/mL (Aspergillus flavus [23]): 10 mm; zone of inhibition at 1000 µg/mL (Pseudomonas aeruginosa [24]): 2 mm; zone of inhibition at 500 µg/mL (Aspergillus niger [25]): 10 mm
